Data set [1] deals with mouse brains (PD brain lesions). Put plainly: PET brain imaging of Rotenone-induced Parkinson's disease mice versus Sham. The class given is in vivo. The conditions noted are these: for F-18 images of PD brains compared with the control group (Sham): Rotenone tube feeding 12 weeks. The source says: Regarding its application, the present invention entails feeding Rotenone to mice by tube feeding continuously for 12 weeks to induce the mouse brains to manifest Parkinson's disease (PD) symptom animal mode for function as the experimental group, treating mice with placebo to serve as the control group (Sham) without manifesting any PD lesions, performing imaging of the mouse brains with an F-18-FE-PE21, F-18-FDOPA and F-18-α-syn3 respectively, displaying the longitudinal-section and cross-section images of the mouse brains, and comparing the intake of the F-18 imaging agent into the mouse brains.

Data set [2] concerns the target amyloid-β(Aβ) (Homo sapiens, UniProt P05067). Put plainly: affinity comparison, amyloid-β. It is filed as binding. Conditions: read-out: amyloid-β(Aβ) value compared with the α-synuclein IC50. The text has this: (§1) Therefore, the present invention not only effectively reduces the logP value but also passes a test of affinity, specificity, and parallel artificial membrane.

Data set [3] is described as follows: logP analysis of the F-18-α-syn3. The class given is physicochemical. The source says: The experimental results of the logP analysis of the F-18-α-syn3 of the present invention are as follows:
The above data is about testing the logP of the F-18-α-syn3 labeling finished product solution repeatedly. The result confirms that all the logP values range from 2 to 3.

The nature of data set [4]: F-18-α-syn3 serum stability. Conditions: serum at 37° C., after a hour. It is filed as in vitro ADME. The method, then:
Moreover, the present invention discloses giving considerations to the F-18-α-syn3 formula and serum stability and thus conducting F-18-α-syn3 formula research to attain a recycling rate as high as 90.1%. Regarding a test of F-18-α-syn3 serum stability, medications are placed within serum at 37° C., achieving radioactive chemical purity of 91.5% even after a hour.

Data set [5] addresses α-synuclein (Homo sapiens, UniProt P37840). Put plainly: test tube competition test, α-synuclein. Conditions: read-out: IC50 (50% binding inhibition).
Text: as §1

The nature of data set [6]: parallel artificial membrane permeation assay (PAMPA) simulating the blood-brain barrier. The class given is in vitro ADME.
Text: as §1

The mark [7] stands for this setting: Rotenone PD mice versus Sham, PET.

The structures appear in SMILES notation. Read-outs that look alike come from different tables or passages of the source.

Chain of amyloid-β(Aβ) (P05067 672-713 limits assumed): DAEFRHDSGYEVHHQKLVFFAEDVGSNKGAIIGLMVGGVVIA

For the molecule `N[C@@H](Cc1cc(O)c(O)cc1[18F])C(=O)O` [F-18-FDOPA], the “selectivity in terms of brain distribution” value in data set [1] (setting [7]) was “no selectivity”. In data set [1] (mice, PET), the “F-18 images of PD brains compared with the control group (Sham)” value is “no difference and no specificity”.

For `Cc1ccc([C@H]2C[C@@H]3CC[C@H]([C@H]2C(=O)OCC[18F])N3C/C=C/I)cc1` [F-18-FE-PE21], the “brain intake, experimental group versus control group” value in data set [1] (setting [7]) was “lower”. The “F-18 images of PD brains compared with the control group (Sham)” value in data set [1] (mice, PET) was “no difference and no specificity”.

Take `O=C1/C(=C\C=C\c2ccc([N+](=O)[O-])cc2)c2ccccc2N1CCOCCF` [F-18-α-syn3, (Z)-1-(2-(2-fluoroethoxy)ethyl)-3-((E)-3-(4-nitrophenyl)allylidene) indolin-2-one]: the IC50 (usually the concentration needed to halve the response being measured) was 142 nM in data set [2] and 172 nM in data set [5]. The logP (commonly a log measure of how a compound divides between an organic and an aqueous phase) in data set [3] (50 uCi, read-out: logP) is 2.63; in data set [3] (end solution, 22 uCi, read-out: logP), 2.41; in data set [3] (end solution, 50 uCi, read-out: logP), 2.07; in data set [3] (labeling finished product solution tested repeatedly, read-out: logP, range of all repeated tests) it was 2 to 3. The “radioactive chemical purity in serum” value in data set [4] is 91.5%. Also, the “concentration that ensures the satisfaction of PAMPA” value in data set [6] was “at least 6 nM”. Also, the PAMPA pass rate in data set [6] (concentration of 60 nM) is recorded as 56.25%. In data set [1] (setting [7]), the background absorption level entry is “obviously lower”. Further, the “F-18 images of PD brains compared with the control group (Sham)” value in data set [1] (mice, PET) is recorded as “clearer F-18 images”. Further, the “passage through the blood-brain barrier (BBB) into mouse brains” value in data set [1] (mice) is recorded as “can pass through the blood-brain barrier”.

Values taken from patent US20250360233A1, “Central Neurodegeneration Imaging Agent and Method of Preparing the Same” (National Atomic Research Institute, priority 2024, published 2025).
